Measurements taken from patent US20140038974A1, “Compositions and Methods for Eye Whitening” (Eye Therapies, LLC, priority 2009, published 2014).
Read-outs that look alike come from different tables or passages of the source.

Assays:
Log P (Table 1) = assay type: physicochemical
eye [1] = details: […] brimonidine
Experimental: FIG. 13 is a photograph of both eyes of the person before the drug was administered. FIG. 14A is a close-up photograph of the right eye and FIG. 14B is a close-up photograph of the left eye.

[2] = test system: conjunctival hyperemia / whiteness of eye; details: for subjects reporting reduced hyperemia and increased whiteness in the treated eye: […] brimonidine, one eye, 8 human subjects
Experimental: (§1) The subjects were administered with the drug in one eye and then asked to assess themselves in the mirror to see if they perceived a difference in conjunctival hyperemia between eyes. The assessments were made 5 minutes after the administration and 4 hours after the administration. After the four hours assessment, the drug was re-administered.

nasal congestion = test system: nasal congestion
Experimental: as §1

[3] = test system: α-2(a)-(c) adrenergic receptor subtypes; assay: α-2 receptor subtype preference, α-2(a)-(c) (Table 1); assay type: binding
eye [4] = details: for effectiveness at reducing eye redness: both general eye redness and eye redness induced by drug administration
Excerpt: Redness reduction is on a scale from 0.00 to 4.00 with 0.00 denoting the greatest redness reduction and 4.00 denoting no redness reduction. Whitening is on a scale from 0.00 to 4.00 with 0.00 denoting pearly white, glistening color and 4.00 denoting no whitening effect.

[5] = test system: α-2 over α-1 adrenergic receptors
[6] = with or without redness induced by drug administration

| Molecule | logP (Log P (Table 1)) | cosmetic whitening of an eye (eye [1]; right eye, person with healthy eyes, left eye untreated) | effect on redness and whiteness of an eye (eye [1]; child patient) | effect on redness and whiteness of an eye (eye [1]; patient with glaucoma receiving Lumigan (bimatoprost 0.03%)) | subjects reporting reduced hyperemia and increased whiteness in the treated eye ([2]; 5 min assessment) | subjects reporting reduced hyperemia and increased whiteness in the treated eye ([2]; four hour assessment) | effect on redness and whiteness of eyes ([2]; low dose ([…]) brimonidine, Example 3 conclusion) | subjects reporting reduced nasal congestion in the nostril on the same side as the treated eye (nasal congestion; […] brimonidine, one eye, four hour assessment, 8 human subjects) | effect on nasal congestion (nasal congestion; in several subjects, nostril on the same side as the treated eye, Example 3 conclusion) | α-2(a)-(c) [3] | further whitening eyes beyond their usual color (eye [4]; after redness inducing drug administration) | effectiveness at reducing eye redness (eye [4]) | Other (pH dependence of effect) (eye [4]; in vivo) | Selectivity [5] | further whitening eyes beyond their usual color (eye [4]; [6]) | Log P (Log P (Table 1)) | Redness Reduction (eye [4]; in vivo) |
| --- | --- | --- | --- | --- | --- | --- | --- | --- | --- | --- | --- | --- | --- | --- | --- | --- | --- |
| Brc1c(NC2=NCCN2)ccc2nccnc12 [Brimonidine, brimonidine] | 1 | noticeably cosmetically whitened | significant reduction of redness and increase of whiteness | significant reduction of redness and increase of whiteness | eight of eight | eight of eight | significant reduction of redness and increase of whiteness | six of eight | reducing nasal congestion | general | general ineffectiveness | highly effective | >effect lo pH | – | – | – | – |
| Cc1cccc([C@H](C)c2cnc[nH]2)c1C [Dexmedetomidine, dexmedetomidine] | 3 | – | – | – | – | – | – | – | – | general | – | highly effective | – | 1660 | generally ineffective | – | – |
| Oc1ccc2c(c1)C(Cc1c[nH]cn1)CC2 (stereo not shown) [Fadolmidine, fadolmidine] | – | – | – | – | – | – | – | – | – | general | – | – | – | – | – | 2.16 | – |
| guanfacine | – | – | – | – | – | – | – | – | – | 2(a) high | – | highly effective | >effect hi pH | – | highly effective | – | 0.00 |
